One assay has as its system S. venezuelae. The assay is described as follows: S. venezuelae sporulation inhibition disk diffusion assay (whi phenotype, SEM). In kind it is cell-based, Streptomyces venezuelae. The following applies: for Sporulation inhibition: disk with 10 μL antibiotic, 48 h, white halo in sub-MIC region; for Aerial hyphae septation by SEM: lawn immediately adjacent to the zone of inhibition. As for the experimental part:
A lawn of S. venezuelae spores was plated on MYM agar plates and allowed to dry. For the initial screen, 2 μL of each molecule at 2.5 mM was spotted directly to the agar plate. For known antibiotics or follow-up screening, 10 μL of molecule was added to a drug disk, allowed to dry, and placed on the agar plate. The S. venezuelae plate was incubated at 30°C for 48 hours and photographed. The whi phenotype was identified by eye. Hits were selected based on their ability to induce a whi phenotype at sub-inhibitory concentrations and scored by eye on the size of the induced whi region and the zone of inhibition.
To prepare samples for SEM, the agar plate containing a lawn of S. venezuelae was cut at the edge of the zone of inhibition and fixed with 2% glutaraldehyde in 0.1% sodium cacodylate buffer followed by sputter coating with gold. Images were obtained and processed using a FEI XL30 ESEM. The contrast of the resulting images was adjusted to highlight the appearance or lack of spore formation.
Background: In agar diffusion tests the substance spreads into inoculated agar from a disc or well.

The subject of the next assay is S. aureus. The assay is described as follows: Minimum inhibitory concentration, broth dilution, S. aureus strains. It counts as cell-based, Staphylococcus aureus. The note with it: Staphylococcus aureus. As for the experimental part:
The minimum inhibitory concentration (MIC) defines the lowest concentration of a compound required to inhibit the growth. A single colony of the bacteria being tested was grown in 5 mL of liquid growth media. Following overnight growth, the culture was diluted 100-fold into fresh media and incubated at 37°C until the cells reached mid-log phase (OD600 of 0.3 to 0.5). The cells were diluted 10,000-fold into fresh media and the MIC determined for each of the strains by adding 2 μL of the diluted compound to 198 μL of the diluted cells in a clear 96-well plate. The plates were incubated at 37°C overnight and the optical density at 600 nm was measured for each well. All MIC assays were performed in triplicate.
On the technique in general: In broth dilution the organism is exposed to a series of concentrations in liquid medium.

The target of a further assay is T1, S. aureus gyrase (Staphylococcus aureus, UniProt P0A0K8+P20831).
T1 construct: purchased Inspiralis Inc. SAS4001 (supercoiling kit); SAGC001 (cleavage assay kit)
As to the kind of experiment: S. aureus gyrase relaxation. The following applies: ATP-independent. In kind it is biochemical. As for the experimental part: 1 U of gyrase was incubated with 0.5 μg of supercoiled pBR322 DNA in a 30 μL reaction at 37°C for 60 minutes under the following conditions: 50 mM Tris.HCl (pH 7.5), 5 mM MgCl2,5 mM DTT, 350 mM potassium glutamate, and 0.05 mg/mL albumin. Each reaction was stopped by the addition of 30 μL chloroform/iso-amyl alcohol (24:1) and 20 μl Stop Dye, before being loaded on a 1.0% TAE agarose gel. Gels run at 80 V for 2 hours.

The target of assay [1] is T2, S. aureus gyrase GyrA S84L (Staphylococcus aureus, UniProt P0A0K8+P20831, S84L).
T2 construct: purchased Inspiralis Inc. SAAS84L01
The assay is described as follows: Supercoiling inhibition of S. aureus gyrase mutant GyrA S84L. It counts as biochemical. The note with it: S. aureus gyrase. As for the experimental part:
1 U of DNA gyrase was incubated with 0.5 μg of relaxed pBR322 DNA in a 30 μl reaction at 37°C for 30 minutes under the following conditions: 35 mM Tris.HCl (pH 7.5), 24 mM KCl, 4 mM MgCl2, 2 mM DTT, 1.8 mM Spermidine, 1 mM ATP, 6.5% (w/v) glycerol and 0.1 mg/mL BSA. Each reaction was stopped by the addition of 30 μl chloroform/iso-amyl alcohol (24:1) and 20 μl Stop Dye (40% sucrose, 100 mM Tris.HCl (pH 7.5), 10 mM EDTA, 0.5 μg/mL bromophenol blue), before being loaded on a 1.0% TAE (Tris.acetate […], EDTA […]) agarose gel. Gels run at 90 V for 2 hours. Bands were visualized by ethidium staining for 20 minutes and destaining in water for 20 minutes. Gels were scanned using a gel documentation system (GeneGenius, Syngene, Cambridge, UK) and percent inhibition levels obtained with gel scanning software (GeneTools, Syngene, Cambridge,UK).
As for E. coli gyrase except assay conditions were: 40 mM HEPES. KOH (pH 7.6), 10 mM magnesium acetate, 10 mM DTT, 2 mM ATP, 500 mM potassium glutamate, and 0.05 mg/mL BSA. Gels run at 80 V for 3 hours.

Setting [2] is: ATCC29213, S. aureus parent strain (ATCC 29213), read-out: MIC.
[3] abbreviates: EN-7-resistant S. aureus mutants.

From article PMC6856721, “Discovery of a Novel DNA Gyrase-Targeting Antibiotic through the Chemical Perturbation of Streptomyces venezuelae Sporulation” (Cell Chemical Biology, 2019) come the findings set out here.

Read-outs that look alike come from different tables or passages of the source.

By MIC is commonly meant the lowest concentration found to suppress growth.

For `N#CC(C#N)=NNc1cccc(Cl)c1` [CCCP, carbonyl cyanide m-chlorophenyl hydrazone], the Sporulation inhibition entry with S. venezuelae is given as “−”. As for `NC[C@H]1O[C@H](O[C@H]2[C@H](O)[C@@H](O[C@H]3O[C@H](CO)[C@@H](O)[C@H](N)[C@H]3O)[C@H](N)C[C@@H]2N)[C@H](O)[C@@H](O)[C@@H]1O` [Kanamycin, kanamycin], in the assay on S. venezuelae, the Sporulation inhibition result was “−” and the “Aerial hyphae septation by SEM” value is “septated aerial hyphae”. The like results for `CO[C@@]12[C@H](COC(N)=O)C3=C(C(=O)C(C)=C(N)C3=O)N1C[C@@H]1N[C@@H]12` [Mitomycin C, mitomycin C] were, in that order, “+” and “do not show any aerial hyphae septation”.

With `CO[C@H]1/C=C/O[C@@]2(C)Oc3c(C)c(O)c4c(O)c(c(/C=N/N5CCN(C)CC5)c(O)c4c3C2=O)NC(=O)/C(C)=C\C=C\[C@H](C)[C@H](O)[C@@H](C)[C@@H](O)[C@@H](C)[C@H](OC(C)=O)[C@@H]1C` [Rifampicin, rifampicin], in the assay with S. venezuelae, the Sporulation inhibition result is “−” and the “Aerial hyphae septation by SEM” value is recorded as “septated aerial hyphae”. Regarding `Oc1cc(Cl)ccc1Oc1ccc(Cl)cc1Cl` [Triclosan, triclosan], the Sporulation inhibition result in the assay with S. venezuelae is recorded as “−”. Same read-out and setting: under `CN[C@H](CC(C)C)C(=O)N[C@H]1C(=O)N[C@@H](CC(N)=O)C(=O)N[C@H]2C(=O)N[C@H]3C(=O)N[C@H](C(=O)N[C@H](C(=O)O)c4cc(O)cc(O)c4-c4cc3ccc4O)[C@H](O)c3ccc(c(Cl)c3)Oc3cc2cc(c3O[C@@H]2O[C@H](CO)[C@@H](O)[C@H](O)[C@H]2O[C@H]2C[C@](C)(N)[C@H](O)[C@H](C)O2)Oc2ccc(cc2Cl)[C@H]1O` [Vancomycin, vancomycin] stands “−”. Turning to `O=C(O)c1cn(C2CC2)c2cc(N3CCNCC3)c(F)cc2c1=O` [ciprofloxacin, reference compound], the Sporulation inhibition result in the assay on S. venezuelae is on record as “+”. Moreover, the “Aerial hyphae septation by SEM” value with S. venezuelae is “do not show any aerial hyphae septation”. Moreover, the MIC in the assay with S. aureus (setting [2]) and in the assay with S. aureus (setting [3]) was 0.2 µg/mL throughout. Consider `O=c1ccc2ncc(=O)n3c2n1C[C@H]3CN1CCC(NCc2cc3c(cn2)OCCC3)CC1` [gepotidacin, reference compound], for which the minimal inhibitory concentration (MIC) came to 0.5 µM in the assay on S. aureus (ATCC29213, S. aureus ATCC 29213 (wild-type, parent strain), read-out: MIC) and 32 µM against S. aureus (EN-7-resistant S. aureus strains with GyrB D437N (mut-7, mut-8)). On to `COc1c(N2C[C@@H]3CCCN[C@@H]3C2)c(F)cc2c(=O)c(C(=O)O)cn(C3CC3)c12` [moxifloxacin, reference compound], for which, on S. aureus gyrase, the “Inhibition of gyrase-induced DNA relaxation” value was “inhibit”. Besides, the “Susceptibility of gyrase mutant GyrA S84L” value in assay [1] is reported as “less susceptible”. Regarding `CO[C@@H]1[C@@H](OC(N)=O)[C@@H](O)[C@H](Oc2ccc3c(O)c(NC(=O)c4ccc(O)c(CC=C(C)C)c4)c(=O)oc3c2C)OC1(C)C` [novobiocin, reference compound], in the assay on S. venezuelae, the Sporulation inhibition entry is “+”. Also, the minimum inhibitory concentration (MIC) in the assay on S. aureus (setting [2]) and against S. aureus (setting [3]) was 0.06 µg/mL in each case. Consider bleomycin, for which the Sporulation inhibition entry in the assay with S. venezuelae is given as “+”.
